The nature of series [1]: Aqueous solubility in PBS pH 7.4 by LC-MS/MS. The format is physicochemical. Here is the method: Solubility. Ten microliters of a 10 mM solution of tested compounds were diluted either in 490 µL of PBS pH 7.4 or MeOH and agitated for 24 h at 250 rpm. The obtained solutions were first centrifuged for 5 min at 4,000 rpm and then further diluted adding 10 μL of each sample to 490 µL of MeOH. Samples were analyzed by LC-MS/MS and the ratio of mass signal area obtained in PBS and in organic solvent was then measured and used to determine solubility.

The nature of series [2]: Metabolic stability in human liver microsomes. The format is in vitro ADME. Here is the method:
Metabolic Stability. All compounds were tested at the final concentration of 1 µM in a 50 mM potassium phosphate buffer (pH 7.4) containing 1% DMSO as vehicle. For microsomes assay, the incubation mixtures contained 0.15 mg of Human liver microsomes (Sigma-Aldrich, St. Louis, MO, United States), 5 mM MgCl2, 1 mM NADPH, 5 mM glucose 6-phosphate, 0.4 U mL^−1 glucose 6-phosphate dehydrogenase. For S9 fraction analysis, the buffer contained 0.15 mg of S9 proteins (Sigma-Aldrich, St. Louis, MO, United States), 0.3 mM NADPH, 5.6 mM glucose-6-phosphate, 0.6 units/mL glucose-6-phosphate dehydrogenase, 5.8 mM UDP-glucuronic acid, 0.05 mM acetyl-CoA, 0.5 mM dithiothreitol, 0.5 mM 3′-phosphoadenosine 5′-phosphosulfate, 1 mM glutathione, 0.2 mM acetyl carnitine, 4 units/mL carnitine acetyl transferase, 0.5 mM glycine, and 0.5 mM taurine.
Samples were kept at 37°C and aliquots were removed at 0, 5, 15, 30, 45, 60, 90, 120, 150 min after protein additions. The reaction was stopped by adding 200 µL of ice-cold acetonitrile to withdrawn aliquots. After 2 h, samples were centrifuged for 10 min at 10,000 rpm, and supernatants were subjected to LC-MS/MS analysis.
The slope of the linear regression of the curve obtained reporting the natural logarithm of compound area versus incubation time (−k) was used in the conversion to in vitro t1/2 values by t1/2 = […].
In vitro intrinsic clearance (Clint expressed as µL/min/mg) was calculated according to the following formula: Clint = Vx 0.693/t1/2 were V = volume of reaction (µL)/protein in the incubation (mg). Testosterone was used as a positive control for microsome and phase I enzymes, and 7-hydroxycoumarin was used as positive control for phase II enzymes.
A general note: Liver microsomes are vesicles of endoplasmic reticulum, rich in cytochrome P450 enzymes.

Converted amounts (≈) assume the structure as drawn.

The term solubility denotes how much of the substance goes into solution per volume. Read a low solubility as a poorly soluble substance. As a reminder, the microsomal CLint is the rate of metabolic loss divided by the concentration. Low readings indicate slow turnover, high ones rapid turnover.

As to `O=C(O)c1cccc(-c2ccc(OCc3ccc4ccccc4n3)cc2)c1` [Compound 2, 4'-(quinolin-2-ylmethoxy)-[1,1′-biphenyl]-3-carboxylic acid], in series [1], the Solubility entry was “good”. In series [1] (PBS pH 7.4), this molecule came in with a solubility at 24 h of 66 µM (≈ 23.5 µg/mL). Also, in series [2], the “stability to Phase I enzymes contained in microsomal fraction” value was “highly stable”. This molecule returned an intrinsic metabolic clearance (microsomal CLint) at 1 µM in series [2] (pH 7.4, human liver microsomes, 1 µM) of 4 µL/min/mg. Besides, the half-life at 1 µM in series [2] (pH 7.4, human liver microsomes, 1 µM, read-out: Microsomes t1/2) was 9.63 h.

(Values after article PMC9085577, “Discovery of a Potent and Orally Active Dual GPBAR1/CysLT1R Modulator for the Treatment of Metabolic Fatty Liver Disease” (Frontiers in Pharmacology, 2022).)
